# Source: publication PMC5732813, “Novel piplartine-containing ruthenium complexes: synthesis, cell growth inhibition, apoptosis induction and ROS production on HCT116 cells” (Oncotarget, 2017)
# Values joined by “and” are separate entries in the source; they are usually repeats but may differ in a detail not shown here. Equal values may be shown once.
# Columns and labels:
# [1] = tested on: HepG2 (human hepatocellular carcinoma); assay: Cytotoxic activity, alamar blue assay, HepG2; type: cell-based
# From the text: (§1) HCT116 (human colon carcinoma), HepG2 (human hepatocellular carcinoma), HSC-3 (human oral squamous cell carcinoma), SCC-4 (human oral squamous cell carcinoma), SCC-9 (human oral squamous cell carcinoma), HL-60 (human promyelocytic leukemia), K-562 (human chronic myelogenous leukemia), B16-F10 (murine melanoma), MRC-5 (human lung fibroblast), WT SV40 MEF (wild-type immortalized mouse embryonic fibroblast) and BAD KO SV40 MEF (BAD gene knockout immortalized mouse embryonic fibroblast) cell lines were obtained from the American Type Culture Collection (ATCC, Manassas, VA, USA) and cultured in RPMI-1640 medium (Gibco-BRL, Gaithersburg, MD, USA) with 10% fetal bovine serum (Life, Carlsbad, CA, USA), 2 mM L-glutamine (Vetec Química Fina, Duque de Caxias, RJ, Brazil) and 50 μg/mL gentamycin (Life, Carlsbad, CA, USA). Adherent cells were collected by treatment with 0.25% trypsin EDTA solution (Gibco-BRL, Gaithersburg, MD, USA). All cell lines were cultured in flasks at 37°C in 5% CO2 and sub-cultured every 3-4 days to maintain exponential growth.
# (§2) Cell viability was quantified using the alamar blue assay, according to Ahmed et al.. Cells were inserted in 96-well plates for all experiments (7 x 10^4 cells/mL for adherent cells or 3 x 10^5 cells/mL for suspended cells in 100 μL of medium). […] Negative controls received the vehicle that was used for diluting the compounds tested.
# [2] = tested on: SCC-9 (human oral squamous cell carcinoma); assay: Cytotoxic activity, alamar blue assay, SCC-9; type: cell-based
# From the text: as §1, §2
# [3] = tested on: HL-60 (human promyelocytic leukemia); assay: Cytotoxic activity, alamar blue assay, HL-60; type: cell-based
# From the text: as §1, §2
# [4] = tested on: BAD KO SV40 MEF (BAD gene knockout immortalized mouse embryonic fibroblast); assay: Cytotoxic activity, alamar blue assay, BAD KO SV40 MEF; type: cell-based; conditions: Mus musculus, Fibroblast, 72 h
# From the text: as §1, §2
# [5] = tested on: HCT116 cells; assay: Internucleosomal DNA fragmentation and cell cycle distribution (DNA content, flow cytometry); type: cell-based, human; conditions: HCT116, 10 μM, mean ± S.E.M.
# Experimental: Cells were harvested in a permeabilization solution containing 0.1% triton X-100 (Sigma Chemical Co. St Louis, MO, USA), 2 μg/mL propidium iodide (Sigma Chemical Co. St Louis, MO, USA), 0.1% sodium citrate and 100 μg/mL RNAse (Sigma Chemical Co. St Louis, MO, USA) and incubated in the dark for 15 min at room temperature.
# [6] = tested on: HCT116 cells; assay: Gene expression analysis by qPCR array (TaqMan Array Human Molecular Mechanisms of Cancer); type: cell-based; conditions: HCT116, 12 h, DOX 1 μM, PL 10 μM, 1 2.5 μM, 2 5 μM, negative control RQ = 1.0
# Experimental: HCT116 cells were plated in bottles tissue culture (7x10^4 cells/mL). After 12h of incubation with the complexes, total RNA was isolated from the cells using the RNeasy Plus mini kit (Qiagen, Hilden, Germany) according to the manufacturer’s instructions. The RNA was evaluated by fluorimetry (QuBit™, Life Technologies, Camarillo, CA, EUA). RNA reverse transcription was performed using Superscript VILO™ (Invitrogen Corporation, Waltham, MA, USA). A 96-well plate TaqMan® Array Human Molecular Mechanisms of Cancer (ID 4418806, Applied Biosystems™, Foster City, CA, EUA) was used for the gene expression study by qPCR. The reactions were conducted in the ABI ViiA7 (Applied Biosystems™, Foster City, CA, EUA). The cycle conditions comprised 2 min at 50 °C, 20 s at 95 °C, then 40 cycles of 3 s at 95 °C and 30 s at 60 °C. […] The GAPDH, 18S and HPRT1 genes were used for normalization. All experiments were performed in DNase/RNase free conditions.
compound,measurement,setting,value
COc1cc(/C=C/C(=O)N2CCC=CC2=O)cc(OC)c1OC [Piplartine],IC50,"[1]; Homo sapiens, HepG2, 72 h",6.3 µM
same,Selectivity index (SI),[1]; SI = IC50[MRC-5]/IC50[HepG2],2.7
same,Selectivity index (SI),[1]; SI = IC50[PBMC]/IC50[HepG2],5.4
same,Selectivity index (SI),[2]; SI = IC50[MRC-5]/IC50[SCC-9],1.0
same,Selectivity index (SI),[2]; SI = IC50[PBMC]/IC50[SCC-9],2.1
same,Selectivity index (SI),[3]; SI = IC50[MRC-5]/IC50[HL-60],1.3
same,Selectivity index (SI),[3]; SI = IC50[PBMC]/IC50[HL-60],2.6
same,IC50,[4],4 µM
same,DNA content (%) G0/G1,[5]; 24h,22.7 ± 0.6%
same,DNA content (%) G2/M,[5]; 24h,21.5 ± 2.9%
same,DNA content (%) S,[5]; 24h,21.4 ± 2.3%
same,DNA content (%) Sub-G0/G1,[5]; 24h,20.3%
same,DNA content (%) Sub-G0/G1,"[5]; 24h, listed as PL",20.3 ± 1.8 %
same,DNA content (%) G0/G1,[5]; 48h,27.0 ± 2.9 %
same,DNA content (%) G2/M,[5]; 48h,21.9 ± 0.9%
same,DNA content (%) S,[5]; 48h,16.4 ± 2.2%
same,DNA content (%) Sub-G0/G1,[5]; 48h,33.9%
same,DNA content (%) Sub-G0/G1,"[5]; 48h, listed as PL",33.9 ± 5.8 %
same,RQ ABL1,[6],1.144
same,RQ AKT1,[6],1.285
same,RQ AKT2,[6],1.068
same,RQ APC,[6],1.236
same,RQ BAX,[6],2.160
same,RQ BCAR1,[6],0.705
same,RQ BCL2L1,[6],0.822
same,RQ BCL2L11,[6],1.536
same,RQ BID,[6],0.528
same,RQ BRAF,[6],1.512
same,RQ CASP8,[6],0.915
same,RQ CASP9,[6],1.065
same,RQ CCND3,[6],1.144
same,RQ CCNE1,[6],1.418
same,RQ CDC42,[6],2.542
same,RQ CDK2,[6],0.722
same,RQ CDK4,[6],0.873
same,RQ CDKN1A,[6],2.847
same,RQ CDKN1B,[6],1.545
same,RQ CRK,[6],0.381
same,RQ CTNNB1,[6],1.026
same,RQ DVL1,[6],0.913
same,RQ E2F1,[6],0.764
same,RQ ELK1,[6],0.625
same,RQ ERBB2,[6],1.273
same,RQ FAS,[6],1.371
same,RQ FGF2,[6],0.854
same,RQ GRB2,[6],1.219
same,RQ GSK3B,[6],1.249
same,RQ GUSB,[6],5.2
same,RQ HRAS,[6],0.928
same,RQ ITGB1,[6],0.784
same,RQ KRAS,[6],0.133
same,RQ MAPK1,[6],1.098
same,RQ MAPK8,[6],0.887
same,RQ MAPK14,[6],1.009
same,RQ MDM2,[6],0.901
same,RQ MYC,[6],0.271
same,RQ NFKB1,[6],0.870
same,RQ NFKB2,[6],0.818
same,RQ NRAS,[6],0.600
same,RQ PIK3CA,[6],0.910
same,RQ RB1,[6],1.314
same,RQ RELA,[6],1.240
same,RQ RHOA,[6],0.979
same,RQ SRC,[6],1.076
same,RQ TCF3,[6],0.774
same,RQ TGFB1,[6],0.947
same,RQ TGFBR1,[6],0.545
same,RQ VEGFA,[6],1.245
same,RQ BCL2,[6]; listed as PL,1.1 and 1.049
same,RQ CCND1,[6]; listed as PL,0.7 and 0.669
same,RQ CDH1,[6]; listed as PL,2.5 and 2.494
same,RQ CDKN2A,[6]; listed as PL,1.6 and 1.575
same,RQ CYCS,[6]; listed as PL,1.0 and 0.954
same,RQ EGFR,[6]; listed as PL,1.2 and 1.173
same,RQ FADD,[6]; listed as PL,0.4 and 0.369
same,RQ FN1,[6]; listed as PL,2.0 and 1.952
same,RQ FOS,[6]; listed as PL,31.0 and 30.985
same,RQ FYN,[6]; listed as PL,1.7 and 1.675
same,RQ FZD1,[6]; listed as PL,1.0 and 0.953
same,RQ IGF1R,[6]; listed as PL,2.1 and 2.082
same,RQ ITGA2B,[6]; listed as PL,3.0 and 2.963
same,RQ ITGAV,[6]; listed as PL,1.0 and 0.993
same,RQ JUN,[6]; listed as PL,3.8 and 3.837
same,RQ KDR,[6]; listed as PL,8.3 and 8.270
same,RQ MAP2K1,[6]; listed as PL,0.8 and 0.759
same,RQ MAP3K5,[6]; listed as PL,0.6 and 0.609
same,RQ MAPK3,[6]; listed as PL,1.7 and 1.726
same,RQ MAX,[6]; listed as PL,3.1 and 3.051
same,RQ NFKBIA,[6]; listed as PL,2.0 and 1.989
same,RQ PIK3R1,[6]; listed as PL,2.4 and 2.352
same,RQ PTEN,[6]; listed as PL,0.5 and 0.501
same,RQ PTK2,[6]; listed as PL,0.6 and 0.616
same,RQ PTK2B,[6]; listed as PL,2.3 and 2.265
same,RQ RAC1,[6]; listed as PL,0.7 and 0.731
same,RQ RAF1,[6]; listed as PL,0.6 and 0.574
same,RQ SHC1,[6]; listed as PL,0.2 and 0.243
same,RQ SMAD4,[6]; listed as PL,0.9 and 0.942
same,RQ SOS1,[6]; listed as PL,0.9 and 0.851
same,RQ SPP1,[6]; listed as PL,1.3 and 1.338
same,RQ TGFBR2,[6]; listed as PL,1.2 and 1.177
same,RQ TP53,[6]; listed as PL,1.2 and 1.182
